# Article PMC12040169 (PLOS Biology, 2025)
# Experiment: in vitro
# Details: human, hela cells, % viability
row,Compound,"viability at 28.5 h, 10 µM [%]"
1,CC(Cc1cccs1)NC(=O)c1cc(-c2ccccn2)n[nH]1 (stereo not shown) [CBK282446],104
2,Cc1ccc2n1CCN(C(=O)c1cc(-c3ccccn3)n[nH]1)C2C(C)C (stereo not shown) [CBK282447],101
3,O=C(NC1CC1)c1ccc(-n2cccn2)c(C#Cc2cccnc2)c1 [CBK282449],107
4,O=C(NCCN1CCC(O)(c2cccc(F)c2)CC1)c1cccs1 [CBK282450],112
5,O=C(NCCN1CCC(O)(c2cccc(F)c2)CC1)C1CC=CCC1 (stereo not shown) [CBK282451],101
6,O=C(Cn1c(-c2cccs2)cc2cccnc21)N1CCOCC1 [CBK282452],101
7,O=C(Cn1c(-c2cccs2)cc2cccnc21)N1CCCC1 [CBK282453],83
8,O=C(Cn1c(-c2cccs2)cc2cccnc21)NCc1ccncc1 [CBK282456],104
9,O=C(Cn1c(-c2cccs2)cc2cccnc21)NCc1cccnc1 [CBK282457],105
10,O=C(Cn1c(-c2cccs2)cc2cccnc21)N1CCC(O)CC1 [CBK282458],113
11,Cc1cc(C(=O)NC2CCCOC2)c2cccc(Cl)c2n1 (stereo not shown) [CBK282459],95.3
12,Cc1cc(C(=O)NCCn2ccnc2C)c2cccc(Cl)c2n1 [CBK282460],95.6
13,CNC(=O)c1ccc(-n2ccnc2)c(-n2cccc2)c1 [CBK282461],80.8
14,CCCc1cc(CNC(=O)c2cnn(-c3ccc(F)cc3)c2)on1 [CBK282463],86.6
15,CCCc1cc(C(=O)NC2(CN3CCCC3)CCCCC2)[nH]n1 [CBK282464],98.1
16,CCCc1cc(C(=O)NC2CCN(Cc3cccc(F)c3)CC2)[nH]n1 [CBK282465],100
17,CCCN1CCC(CNC(=O)c2cnn(-c3ccc(F)cc3)c2)CC1 [CBK282466],112
18,CCCc1cc(C(=O)NC(C)(C)CN2CCCC(C)C2)[nH]n1 (stereo not shown) [CBK282467],89.1
19,Cc1ccccc1C1(O)CCN(CC(O)c2ccc(F)cc2)CC1 (stereo not shown) [CBK282471],87.7
20,Cc1nc2ccc(C(=O)NCC3CCCN(C(C)C)C3)cc2[nH]1 (stereo not shown) [CBK282475],90
21,Cc1nc2ccc(C(=O)NCCCc3ccccn3)cc2s1 [CBK282478],88.2
22,Cc1ccc(C2(CN3CCN(CC4CCOC4)CC3)CC2)cc1 (stereo not shown) [CBK282479],86.1
23,Cc1ccc(CN(CCCN(C)C)Cc2nccn2C)o1 [CBK282481],105
24,C=C(C)Cn1nc(C)c(CN(C)CCN2CCCCC2)c1C [CBK282483],88.7

row,Compound,"viability at 28.5 h, 10 µM [%]"
1,Cn1cc(CCCC(=O)NC2CCCOC2)c2ccccc21 (stereo not shown) [CBK282486],81.8
2,CC1CCN(CC(O)c2ccc3c(c2)CCCN3C(=O)C2CC2)CC1 (stereo not shown) [CBK282488],96.9
3,OC(CN1CCC(O)(c2ccc(F)cc2)CC1)c1ccccc1 (stereo not shown) [CBK282489],104
4,OC(CN1CCC(O)(c2ccccc2F)CC1)c1ccccc1 (stereo not shown) [CBK282490],107
5,Cc1ccccc1C1(O)CCN(CC(O)c2ccccc2)CC1 (stereo not shown) [CBK282491],83.7
6,OC(CN1CCC(O)(c2ccccc2F)CC1)c1ccc(F)cc1 (stereo not shown) [CBK282492],87.2
7,COc1cccc(CN(Cc2ccco2)Cc2cnc(C)n2C)c1 [CBK282494],93.6
8,COc1cccc(CN(Cc2ncc[nH]2)Cc2ccco2)c1 [CBK282496],98.7
9,O=C(NCCC(c1ccccc1)c1ccco1)C1CCCN1 (stereo not shown) [CBK282499],85
10,CCc1c(C(=O)NCc2cc(C3CC3)[nH]n2)[nH]c2ccc(F)cc12 [CBK282501],76.3
11,CC(=O)c1cn(CCC(=O)NC2CCCN(C)C2)c2ccccc12 (stereo not shown) [CBK282503],81.3
12,Cc1cccc(C2(O)CCN(CC(O)c3ccc(F)cc3)CC2)c1 (stereo not shown) [CBK282504],96.6
13,CCc1[nH]c2ccc(C(=O)NCCn3ccnc3C)cc2c1C [CBK282505],96.4
14,Cc1cccc(C2(O)CCN(C(=O)CCCc3ccncc3)CC2)c1 [CBK282506],111
15,Cn1c(CCC(=O)Nc2c[nH]c3ccccc23)nc2ccccc21 [CBK282507],85.9
16,CCOC(=O)C(C)NC(=O)c1ccc2nc(C)sc2c1 (stereo not shown) [CBK282508],85.5
17,Cc1c(C(=O)NCC[S+](C)[O-])oc2c(C)cccc12 (stereo not shown) [CBK282511],88.8
18,Cc1nn(-c2cccc(C(=O)NC3CCCOC3)c2)c(C)c1Cl (stereo not shown) [CBK282512],83.6
19,COc1ccccc1CCCNC(=O)c1csc(C(C)=O)c1 [CBK282513],98.8
20,CC(=O)c1cc(C(=O)NC(c2ccccc2)c2cccnc2)cs1 (stereo not shown) [CBK282514],125
21,COc1ccccc1CC(C)NC(=O)c1csc(C(C)=O)c1 (stereo not shown) [CBK282517],114
22,Cc1ccn(CCNC(=O)c2ccc3c(C)c(C)[nH]c3c2)n1 [CBK282519],101
23,CCc1nc2cc(NC(=O)c3csc(C(C)=O)c3)ccc2n1C [CBK282522],105
24,Cc1ccc(C)c2c(C)c(C(=O)N3CCC(O)C(C)C3)[nH]c12 (stereo not shown) [CBK282527],97.4

row,Compound,"viability at 28.5 h, 10 µM [%]"
1,CCOc1ccc2[nH]c(C(=O)NC3CCCOC3)c(C)c2c1 (stereo not shown) [CBK282529],113
2,CCOc1ccc2[nH]c(C(=O)NC3CCCN(C)C3)c(C)c2c1 (stereo not shown) [CBK282530],109
3,CC(=O)c1cc(C(=O)N2CCC(O)(c3cccc(C)c3)CC2)cs1 [CBK282531],92.8
4,Cc1n[nH]c(C)c1CNC(=O)c1[nH]c2c(Cl)cccc2c1C [CBK282534],96
5,CC(C)c1cc(C(=O)NC(c2ccccc2)c2ccnn2C)n(C)n1 (stereo not shown) [CBK282535],102
6,CN(Cc1cccc2ncccc12)C(=O)c1cc(C2CC2)nn1C [CBK282537],108
7,CC1(C)CC(N(Cc2ccc(F)cc2)Cc2c[nH]cn2)CC(C)(C)N1 [CBK282540],102
8,COc1ccc2cc(C(=O)NC3CCCN(C)C3)n(C)c2c1 (stereo not shown) [CBK282541],85.1
9,CCCN1CCC(CNC(=O)c2cc3ccc(OC)cc3n2C)CC1 [CBK282542],99.9
10,O=C1CN(C(=O)Cn2c(-c3cccs3)cc3cccnc32)CCN1 [CBK282543],100
11,COc1ccc2cc(C(=O)NCCn3ccnc3C)n(C)c2c1 [CBK282544],94.1
12,COCC(=O)NC1CCN(CC2(c3cccc(F)c3)CCCC2)CC1 [CBK282546],108
13,CN1CCCC(NC(=O)Cn2nc(C(F)(F)F)c3c2CCCC3)C1 (stereo not shown) [CBK282548],101
14,Cc1[nH]c2c(C(=O)NCCCC3CCOC3)cccc2c1C (stereo not shown) [CBK282551],84.1
15,O=C(Cn1c(-c2cccs2)cc2cccnc21)NC1CC1 [CBK282552],101
16,O=C(Cn1c(-c2cccs2)cc2cccnc21)NCC1CC1 [CBK282553],106
17,CN(C)CCNC(=O)Cn1c(-c2cccs2)cc2cccnc21 [CBK282555],92.6
18,COCCCNC(=O)Cn1c(-c2cccs2)cc2cccnc21 [CBK282559],87.2
19,Cc1nn(C(C)C)c(C)c1CN1CCN(C2CCCCC2)C(=O)C1 [CBK282562],109
20,C[S+]([O-])CCNC(=O)c1cc(-c2cccs2)no1 (stereo not shown) [CBK282563],84.5
21,CN1CCC(CNC(=O)Cn2ccc3ccc(F)cc32)(N(C)C)CC1 [CBK282569],107
22,O=C(Cn1ccc2ccc(F)cc21)Nc1cccc(-n2cnnc2)c1 [CBK282570],111
23,CC(=O)c1csc(NC(=O)Cn2ccc3ccc(F)cc32)n1 [CBK282572],90.5
24,CCCN1CCC(CNC(=O)Cn2ccc3ccc(F)cc32)CC1 [CBK282573],88

row,Compound,"viability at 28.5 h, 10 µM [%]"
1,C=CCC1(CC=C)CCN1C(=O)c1cc(-c2c(C)nn(C)c2C)n[nH]1 [CBK282575],82.2
2,Cc1cc2occ(CC(=O)NCc3cc(C4CC4)[nH]n3)c2cc1C [CBK282576],87.1
3,CC1(C)CC(N(Cc2c[nH]cn2)Cc2ccccc2F)CC(C)(C)N1 [CBK282579],92.9
4,C=Cn1cc(CN2CCC(O)(c3ccccc3C)CC2)c(C)n1 [CBK282580],93.7
5,C=CCn1cc(CN2CCC(O)(c3ccccc3C)CC2)c(C)n1 [CBK282581],86.5
6,C=Cn1ncc(CN2CCC(O)(c3ccccc3C)CC2)c1C [CBK282582],88.6
7,O=C(O)CCn1c(-c2ccc(F)cc2)cc2cccnc21 [CBK282583],84.4
8,CCc1cccc2c(CC(=O)NC3CCCOC3)c(C)[nH]c12 (stereo not shown) [CBK282584],105
9,C=CCOc1ccc(Cl)cc1C(=O)NCc1c(C)n[nH]c1C [CBK282587],82.6
10,CC(=O)NC1CCN(CC2(c3ccccc3F)CCCC2)CC1 [CBK282591],86.7
11,C=Cn1cc(CN2CCCN(Cc3cccc(F)c3)CC2)c(C)n1 [CBK282594],98.7
12,COc1ccccc1CC(C)NC(=O)c1ccnn1C(C)C (stereo not shown) [CBK282595],86.9
13,CCOc1cc(CCC(=O)NC(C)c2ccccc2)on1 (stereo not shown) [CBK282597],82.3
14,Fc1ccc([C@@H]2COC[C@H]2NCc2ccsc2)cc1 [CBK282598],100
15,Cc1oc2ccc(O)cc2c1C(=O)NC(C)(C)CN1CCCC(C)C1 (stereo not shown) [CBK282601],105
16,CCN1CCCC1CN(Cc1cccs1)CC1CCOC1 (stereo not shown) [CBK282602],97.1
17,CCN1CCCC1CN(Cc1cccs1)Cc1cnc(C)n1C (stereo not shown) [CBK282603],91.5
18,c1ccc(CN2CCC3(CC2)CNCc2ccccc2O3)cc1 [CBK282605],88.4
19,Cc1ccc(C2(O)CCN(CCNC(=O)C3CCCC3)CC2)cc1 [CBK282606],93.1
20,Cc1ccc(C2(O)CCN(CCNC(=O)C3CC3C)CC2)cc1 (stereo not shown) [CBK282607],83.9
21,Cc1cc2occ(CC(=O)NC3CCCN(C)C3)c2cc1C (stereo not shown) [CBK282611],93.1
22,Cc1nc(C)n(CCNC(=O)Cc2coc3cc(C)c(C)cc23)n1 [CBK282613],90.7
